# Reference: US20230117328A1, “METHODS TO TREAT CANCER USING (R)-N-(3-FLUORO-4-((3-((1-HYDROXYPROPAN-2-YL)AMINO)-1H-PYRAZOLO[3,4-B]PYRIDIN-4-YL)OXY)PHENYL)-3-(4-FLUOROPHENYL)-1-ISOPROPYL-2,4-DIOXO-1,2,3,4-TETRAHYDROPYRIMIDINE-5-CARBOXAMIDE” (Array BioPharma Inc., priority 2020, published 2023)
# Key:
# Sprague Dawley rats = experiment: 28-day repeat dose oral toxicity and toxicokinetic study with 28-day recovery period; format: in vivo
# [1] = Tolerability (body weight loss, deaths) in tumor-naive cohorts; format: in vivo; details: tumor-naive mice
# Procedure: Anti-PD-1 was administered twice weekly (BIW) for 2 consecutive weeks by intraperitoneal (IP) injection at 200 μg/mouse. […] Concomitantly, a set of satellite cohorts comprising tumor-naïve mice was treated with the same schedules and doses as indicated above. […]
# [2] = test system: MC-38 colon adenocarcinoma tumors; experiment: Antitumor efficacy in syngeneic MC-38 colon adenocarcinoma tumor-bearing mice; format: in vivo, C57BL/6 mice; details: MC-38 tumor-bearing mice; for Median Survival (days): not reached = more than 50% of animals alive at end of study (Day 66), 50 mg/kg
# Procedure: Female C57BL/6 bearing syngeneic MC-38 colon adenocarcinoma tumors (n=8/group, implanted on Day 0) were administered test articles Compound 1 or anti-PD-1, as monotherapy or in combination, starting on Day 10. As monotherapy, anti-PD-1 was administered twice weekly (BIW) for 2 consecutive weeks by intraperitoneal (IP) injection at 200 μg/mouse (Days 10, 13, 17, and 20). As monotherapy, Compound 1 was administered twice daily (BID) at 50 mg/kg by oral gavage (PO) for 28 consecutive days (Days 10-37). As combination therapy with anti-PD-1 (administered at the dose and schedule indicated above), Compound 1 was administered BID at 50 mg/kg PO for 1) 7 consecutive days (Days 10-16); 2) 14 consecutive days (Days 10-23); 3) 21 consecutive days (Days 10-30); 4) 28 consecutive days (Days 10-37); or, 5) 7 consecutive days on the first and third week of dosing (Days 10-16 and Days 24-30). This set of cohorts was used to determine both the tolerability and efficacy of Compound 1 treatment across dosing schedules, as well as ocular toxicity upon recovery on Day 66.
# For initial tumor outgrowth, a suspension of 1×10^6 MC-38 cells in a volume of 100 μL PBS was implanted subcutaneously on the right flank of the animal near the axillary region. Animals were then randomly assigned to treatment groups. Treatment was initiated on day 10 after MC-38 tumor cell inoculation to allow for a sufficient treatment window (Table 1).
# Anti-PD-1 was administered twice weekly (BIW) for 2 consecutive weeks by intraperitoneal (IP) injection at 200 μg/mouse. Compound 1 was administered twice daily (BID) for 28 consecutive days by oral gavage (PO) at 50 mg/kg in 10 mL/kg dose volume (with or without anti-PD-1 administered on the above indicated dose and schedule). Alternatively, Compound 1 was administered BID for 7, 14 or 21 consecutive days, or on Days 10-16 and Days 24-30 in combination with anti-PD-1. Concomitantly, a set of satellite cohorts comprising tumor-naïve mice was treated with the same schedules and doses as indicated above.
# Animals were monitored for tumor growth and body weight 2-3 times per week based on outgrowth kinetics. Tumor diameter was measured with digital calipers, and the tumor volume in mm^3 was calculated by the formula: Volume=((width)^2×length)/2. Animals were removed from study if found moribund or if tumor volume exceeded 1500 mm^3. […] Food, water, temperature and humidity were according to Pharmacology Testing Facility performance standards (SOPs) which are in accordance with the 1996 Guide for the Care and Use of Laboratory Animals (NRC) and AAALAC-International.
# The murine MC-38 colon adenocarcinoma cell line was developed in C57BL/6 mice upon subcutaneous injection of dimethylhydrazine (Corbett, T. H., Griswold, D. P., et al. (1975), Cancer Research 35, 2434-2439). Extensive immunogenomic, transcriptomic, and therapeutic background are available on this cell line (Yadav, M., Jhunjhunwala, S., et al. (2014) Nature, 515, 572-576; and Efremova, M., Rieder, D., et al. (2018) Nat. Commun. 9, 32). The MC-38 cell line is reported to harbor driver mutations in TP53, PTEN, SMAD2, SMAD4, ACVR2A, TGFB2, BRAF, AXIN, SOX9, and ARID1A. Furthermore, mutations in the MMR gene MSH3 indicate that this cell line is a model of human MSI/hypermutated colorectal cancer. Whole exome sequencing has also identified 1290 transcript coding variations (compared to the reference C57BL/6 genome), among which 170 were predicted to be MHC Class I-presented neo-epitopes.
# MC-38 (National Cancer Institute-Frederick Tumor Repository, Frederick, Md.) cells were grown in a humidified atmosphere of 5% CO2 using DMEM growth media (Gibco Life Technologies, 11965-092) supplemented with 10% fetal bovine serum (HyClone SH30071.03, Logan, Utah) and 100 U/mL penicillin, 100 μg/mL streptomycin (Gibco Life Technologies, 15140-122). Cells were confirmed murine virus and mycoplasma negative (IDEXX Laboratories Inc, Columbia, Mo.) prior to implantation. […]
# [3] = oral QD 28 days at 30, 100 or 300/200 mg/kg
# [4] = Compound 1 50 mg/kg PO BID Days 10-16/24-30 in combination with anti-PD-1 200 μg IP BIW
# [5] = Compound 1 50 mg/kg PO BID Days 10-16 in combination with anti-PD-1 200 μg IP BIW
# [6] = Compound 1 50 mg/kg PO BID Days 10-23 in combination with anti-PD-1 200 μg IP BIW
# [7] = Compound 1 50 mg/kg PO BID Days 10-30 in combination with anti-PD-1 200 μg IP BIW
# [8] = Compound 1 50 mg/kg PO BID Days 10-37 in combination with anti-PD-1 200 μg IP BIW
# [9] = Compound 1 monotherapy, 50 mg/kg PO BID Days 10-37
# [10] = Compound 1 50 mg/kg PO BID Days 10-16 (7 days) in combination with anti-PD-1 200 μg IP BIW (Days 10, 13, 17, 20)
# [11] = Compound 1 50 mg/kg PO BID Days 10-16 and Days 24-30 (interval schedule) in combination with anti-PD-1 200 μg IP BIW (Days 10, 13, 17, 20)
# [12] = Compound 1 50 mg/kg PO BID Days 10-23 (14 days) in combination with anti-PD-1 200 μg IP BIW (Days 10, 13, 17, 20)
# [13] = Compound 1 50 mg/kg PO BID Days 10-30 (21 days) in combination with anti-PD-1 200 μg IP BIW (Days 10, 13, 17, 20)
# [14] = Compound 1 50 mg/kg PO BID Days 10-37 (28 days) in combination with anti-PD-1 200 μg IP BIW (Days 10, 13, 17, 20)
# [15] = Compound 1 monotherapy, 50 mg/kg PO BID Days 10-37 (28 days)
structure (smiles),measurement,setting,value
"CC(C)n1cc(C(=O)Nc2ccc(Oc3ccnc4[nH]nc(N[C@H](C)CO)c34)c(F)c2)c(=O)n(-c2ccc(F)cc2)c1=O [Compound 1, (R)—N-(3-fluoro-4-((3-((1-hydroxypropan-2-yl)amino)-1H-pyrazolo[3,4-b]pyridin-4-yl)oxy)phenyl)-3-(4-fluorophenyl)-1-isopropyl-2,4-dioxo-1,2,3,4-tetrahydropyrimidine-5-carboxamide]",adversity of changes in the eyes and testes,Sprague Dawley rats; oral QD 28 days,considered to be adverse
same,"dose with structural/functional changes in the eyes (outer retinal atrophy), female",Sprague Dawley rats; [3],30 mg/kg
same,"dose with structural/functional changes in the eyes (outer retinal atrophy), males",Sprague Dawley rats; [3],100 mg/kg
same,reversibility of outer retinal atrophy,"Sprague Dawley rats; oral QD 28 days, 28-day recovery period",unrecoverable
same,Deaths (any cause),[1]; [4],0/5
same,Maximum % Body Weight Loss,[1]; [4],0.00%
same,Deaths (any cause),[1]; [5],0/5
same,Maximum % Body Weight Loss,[1]; [5],0.00%
same,Deaths (any cause),[1]; [6],1/5
same,Maximum % Body Weight Loss,[1]; [6],0.00%
same,Deaths (any cause),[1]; [7],1/5
same,Maximum % Body Weight Loss,[1]; [7],0.00%
same,Deaths (any cause),[1]; [8],0/5
same,Maximum % Body Weight Loss,[1]; [8],0.00%
same,Deaths (any cause),[1]; [9],0/5
same,Maximum % Body Weight Loss,[1]; [9],0.00%
same,% TGI on Day 32,[2]; [10],96.6%
same,Cures on Day 66,[2]; [10],6/8
same,Median Survival (days),[2]; Compound 1 50 mg/kg PO BID Days 10-16 (7 days) in combination with anti-PD-1 200 μg IP BIW,not reached
same,% TGI on Day 32,[2]; [11],96.2%
same,Cures on Day 66,[2]; [11],4/8
same,Median Survival (days),[2]; Compound 1 50 mg/kg PO BID Days 10-16 and Days 24-30 (interval schedule) in combination with anti-PD-1 200 μg IP BIW,not reached
same,% TGI on Day 32,[2]; [12],97.1%
same,Cures on Day 66,[2]; [12],3/8
same,Median Survival,[2]; [12],66 days
same,% TGI on Day 32,[2]; [13],98.5%
same,Cures on Day 66,[2]; [13],3/8
same,Median Survival (days),[2]; Compound 1 50 mg/kg PO BID Days 10-30 (21 days) in combination with anti-PD-1 200 μg IP BIW,not reached
same,% TGI on Day 32,[2]; [14],99.3%
same,Cures on Day 66,[2]; [14],5/7
same,Median Survival (days),[2]; Compound 1 50 mg/kg PO BID Days 10-37 (28 days) in combination with anti-PD-1 200 μg IP BIW,not reached
same,% TGI on Day 32,[2]; [15],95.6%
same,Cures on Day 66,[2]; [15],0/6
same,Median Survival,[2]; [15],66 days
